Measured values: patent publication US9422240B2, “Partially saturated nitrogen-containing heterocyclic compound” (TAISHO PHARMACEUTICAL CO., LTD, priority 2012, dated 2016)

Columns and labels:
human PHD2 [1] = target: T1, human PHD2 (Homo sapiens (Human), UniProt Q9GZT9); assay: Test 2: human PHD2 inhibitory activity, fluorescence polarization assay of HIF-1α peptide proline hydroxylation; assay type: biochemical; conditions: for inhibition at 1 µM: test compound's concentration 1 μM, Test 2, fluorescence polarization assay, read-out: Percent inhibition (% at 1 μM); for IC50: human PHD2, fluorescence polarization assay, 20-min incubation at 30° C.
Procedure, shortened: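 A 19-mer HIF-1α peptide served as substrate, with the reaction started by 40 ng/well human PHD2 (cell lysate of NM_022051-transfected cells) and run 20 min at 30° C. before EDTA stop. Hydroxylated product bound anti-HIF-OH antibody, read by fluorescence polarization versus no-compound control.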

human PHD2 [2] = target: T1, human PHD2; assay: Test 1: human PHD2 inhibitory activity, [14C]-2-oxoglutarate to [14C]-succinic acid radiometric assay with HIF-1α peptide; assay type: biochemical; conditions: test compound's concentration 1 μM; Test 1, [14C]-2-oxoglutarate radiometric assay; read-out: Percent inhibition (% at 1 μM)
Procedure, shortened: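 Activity was measured by radiometric counting of [14C]-succinic acid formed during prolyl hydroxylation of a 19-mer HIF-1α peptide, after DNPH removal of residual [14C]-2-oxoglutarate. Baculovirus-expressed human PHD2 lysate (4 μg/well) reacted for 15 min at 37° C. Substrate-free and compound-free wells served as reference points for inhibition.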

T1 sequence (Q9GZT9 whole entry): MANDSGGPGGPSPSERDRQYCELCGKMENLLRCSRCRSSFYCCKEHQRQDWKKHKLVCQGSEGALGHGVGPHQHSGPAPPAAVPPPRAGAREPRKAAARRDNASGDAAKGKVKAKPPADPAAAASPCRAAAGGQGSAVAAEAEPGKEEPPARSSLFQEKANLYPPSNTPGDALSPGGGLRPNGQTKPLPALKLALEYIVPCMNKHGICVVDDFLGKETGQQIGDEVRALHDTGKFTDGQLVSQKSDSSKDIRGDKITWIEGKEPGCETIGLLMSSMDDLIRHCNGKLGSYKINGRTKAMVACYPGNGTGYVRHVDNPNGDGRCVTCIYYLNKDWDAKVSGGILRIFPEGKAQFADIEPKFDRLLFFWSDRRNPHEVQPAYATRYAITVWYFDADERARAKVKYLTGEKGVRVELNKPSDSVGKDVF

inhibition at 1 µM (human PHD2 [1]) [%] | inhibition at 1 µM (human PHD2 [2]) [%] | IC50 (human PHD2 [1]) [nM] | Structure (SMILES)
79 | 70 | – | CC1(C)CC(O)=C(C(=O)NCC(=O)O)C(=O)N1Cc1ccc(OCC2CC2)cc1 [Ex. 1-198]
75 | 65 | – | Cc1cc(CN2C(=O)C(C(=O)NCC(=O)O)=C(O)CC2(C)C)ccc1OCC1CC1 [Ex. 1-199]
99 | 98 | – | O=C(O)CNC(=O)C1=C(O)C2(CC2)CN(Cc2ccc(-c3ccccc3)cc2)C1=O [Ex. 1-200]
73 | 67 | – | CC1(C)CC(O)=C(C(=O)NCC(=O)O)C(=O)N1Cc1ccc(OCCCC(F)(F)F)c(F)c1 [Ex. 1-201]
69 | 58 | – | Cc1ccc(CN2C(=O)C(C(=O)NCC(=O)O)=C(O)CC2(C)C)cc1Cl [Ex. 1-202]
69 | 61 | – | CC1(C)CC(O)=C(C(=O)NCC(=O)O)C(=O)N1Cc1ccc(C2CC2)cc1 [Ex. 1-203]
79 | 69 | – | CC1(C)CC(O)=C(C(=O)NCC(=O)O)C(=O)N1Cc1ccc(OCC2CC2)c(F)c1 [Ex. 1-204]
93 | 95 | – | Cc1ccc(Oc2ccc(CN3C(=O)C(C(=O)NCC(=O)O)=C(O)CC3(C)C)cn2)cc1 [Ex. 1-206]
93 | 92 | – | O=C(O)CNC(=O)C1=C(O)C2(CC2)CN(Cc2ccc(Br)cc2)C1=O [Ex. 1-207]
85 | 90 | – | O=C(O)CNC(=O)C1=C(O)C2(CC2)CN(Cc2ccc(OC(F)(F)F)cc2)C1=O [Ex. 1-208]
42 | 59 | – | CC1CC(O)=C(C(=O)NCC(=O)O)C(=O)N1C1(c2ccc(C(F)(F)F)cc2)CC1 (stereo not drawn) [Ex. 1-210]
79 | 76 | – | CC1(C)CC(O)=C(C(=O)NCC(=O)O)C(=O)N1Cc1ccc(C2CCC2)cc1 [Ex. 1-211]
85 | 82 | – | O=C(O)CNC(=O)C1=C(O)CCN(Cc2ccc(C3CC3)c(C(F)(F)F)c2)C1=O [Ex. 1-212]
88 | 88 | – | CC1(C)CC(O)=C(C(=O)NCC(=O)O)C(=O)N1Cc1cc(-c2ccc(Cl)cc2)no1 [Ex. 1-213]
90 | 89 | – | O=C(O)CNC(=O)C1=C(O)C2(CC2)CN(Cc2ccc(C3CC3)cc2)C1=O [Ex. 1-214]
86 | 85 | – | O=C(O)CNC(=O)C1=C(O)C2(CC2)CN(Cc2ccc(Cl)cc2)C1=O [Ex. 1-215]
73 | 75 | – | CC1(C)CC(O)=C(C(=O)NCC(=O)O)C(=O)N1Cc1cc(-c2ccc(Cl)cc2)on1 [Ex. 1-216]
60 | 52 | – | CC1(C)CC(O)=C(C(=O)NCC(=O)O)C(=O)N1CC1CC(c2ccccc2)C1 (stereo not drawn) [Ex. 1-217]
62 | 52 | – | CC1(C)CC(O)=C(C(=O)NCC(=O)O)C(=O)N1C[C@H]1C[C@@H](c2ccccc2)C1 [Ex. 1-218]
88 | 69 | – | O=C(O)CNC(=O)C1=C(O)CCN(C2(c3ccc(-c4ccccc4)cc3)CC2)C1=O [Ex. 1-219]

inhibition at 1 µM (human PHD2 [1]) [%] | inhibition at 1 µM (human PHD2 [2]) [%] | IC50 (human PHD2 [1]) [nM] | Structure (SMILES)
82 | 72 | – | O=C(O)CNC(=O)C1=C(O)CCN(C2CCC(Cc3ccccc3)CC2)C1=O (stereo not drawn) [Ex. 1-220]
73 | 66 | – | CC1(C)CC(O)=C(C(=O)NCC(=O)O)C(=O)N1Cc1ccc(OCC(F)(F)F)cc1 [Ex. 1-221]
89 | 90 | – | O=C(O)CNC(=O)C1=C(O)CCN(Cc2ccc(OCC(F)(F)F)c(Cl)c2)C1=O [Ex. 1-222]
96 | 90 | – | O=C(O)CNC(=O)C1=C(O)CC2(CC2)N(Cc2ccc(-c3ccccc3)cc2)C1=O [Ex. 1-223]
90 | 80 | – | O=C(O)CNC(=O)C1=C(O)CC2(CC2)N(Cc2ccc(C(F)(F)F)cc2)C1=O [Ex. 1-224]
98 | 100 | 40 | N#Cc1ccc(Oc2ccc(CN3CCC(O)=C(C(=O)NCC(=O)O)C3=O)cn2)cc1 [Ex. 1-225]
75 | 76 | – | CCCOc1ccc(CN2C(=O)C(C(=O)NCC(=O)O)=C(O)CC2(C)C)cc1 [Ex. 1-227]
64 | 71 | – | CC(C)Oc1ccc(CN2C(=O)C(C(=O)NCC(=O)O)=C(O)CC2(C)C)cc1 [Ex. 1-228]
60 | 74 | – | CC1(C)CC(O)=C(C(=O)NCC(=O)O)C(=O)N1C[C@H]1C[C@@H]1c1ccccc1 [Ex. 1-229]
95 | 96 | – | CC(c1ccc(-c2ccccc2)cc1)N1CCC(O)=C(C(=O)NCC(=O)O)C1=O (stereo not drawn) [Ex. 1-230]
44 | 65 | – | CC(C)(c1ccc(C(F)(F)F)cc1)N1CCC(O)=C(C(=O)NCC(=O)O)C1=O [Ex. 1-231]
91 | 89 | – | CC(C)(C)COCc1ccc(CN2CCC(O)=C(C(=O)NCC(=O)O)C2=O)cc1 [Ex. 1-232]
93 | 91 | – | CC1(COCc2ccc(CN3CCC(O)=C(C(=O)NCC(=O)O)C3=O)cc2)CC1 [Ex. 1-233]
62 | 61 | – | CCOc1ccc(CN2C(=O)C(C(=O)NCC(=O)O)=C(O)CC2(C)C)cc1 [Ex. 1-234]
87 | 84 | – | O=C(O)CNC(=O)C1=C(O)CC2(CCC2)N(Cc2ccc(C3CC3)cc2)C1=O [Ex. 1-236]
84 | 74 | – | O=C(O)CNC(=O)C1=C(O)C2(CCC2)CN(Cc2ccc(C3CC3)cc2)C1=O [Ex. 1-237]
99 | 92 | – | O=C(O)CNC(=O)C1=C(O)CCN(Cc2ccc(OCC3CCC3)cc2)C1=O [Ex. 1-238]
87 | 74 | – | CC1(C)CC(O)=C(C(=O)NCC(=O)O)C(=O)N1Cc1ccc(OCC2CCC2)cc1 [Ex. 1-239]
97 | 91 | – | O=C(O)CNC(=O)C1=C(O)CCN(Cc2ccc(OCc3ccccc3)cc2)C1=O [Ex. 1-240]
101 | 97 | – | O=C(O)CNC(=O)C1=C(O)CCN(Cc2ccc(OCc3ccc(F)cc3)cc2)C1=O [Ex. 1-241]

inhibition at 1 µM (human PHD2 [1]) [%] | inhibition at 1 µM (human PHD2 [2]) [%] | IC50 (human PHD2 [1]) [nM] | Structure (SMILES)
101 | 100 | – | O=C(O)CNC(=O)C1=C(O)CCN(Cc2ccc(OCc3ccc(Cl)cc3)cc2)C1=O [Ex. 1-242]
92 | 76 | – | O=C(O)CNC(=O)C1=C(O)CCN(Cc2ccc(C3CCC3)c(C(F)(F)F)c2)C1=O [Ex. 1-243]
50 | 47 | – | CC1(C)CC(O)=C(C(=O)NCC(=O)O)C(=O)N1C[C@@H]1C[C@@H]1c1ccccc1 [Ex. 1-244]
78 | 80 | – | O=C(O)CNC(=O)C1=C(O)CCN(Cc2ccc(C(F)(F)F)c(C3CCC3)c2)C1=O [Ex. 1-245]
82 | 81 | – | CC1(C)CC(O)=C(C(=O)NCC(=O)O)C(=O)N1Cc1ccc(OCCC2CC2)cc1 [Ex. 1-247]
94 | 103 | – | O=C(O)CNC(=O)C1=C(O)CCN(Cc2ccc(CCC3CC3)cc2)C1=O [Ex. 1-249]
81 | 80 | – | O=C(O)CNC(=O)C1=C(O)C2(CCC2)CN(Cc2ccc(OCC3CC3)cc2)C1=O [Ex. 1-250]
83 | 90 | – | O=C(O)CNC(=O)C1=C(O)CC2(CC2)N(Cc2ccc(OCC3CC3)cc2)C1=O [Ex. 1-251]
98 | 104 | 87 | O=C(O)CNC(=O)C1=C(O)CCN(Cc2ccc(Oc3ccc(F)cc3)nc2)C1=O [Ex. 1-252]
49 | 45 | – | O=C(O)CNC(=O)C1=C(O)CC2(CCCCC2)N(Cc2ccccc2)C1=O [Ex. 1-253]
96 | 103 | 24 | O=C(O)CNC(=O)C1=C(O)CCN(Cc2ccc(Oc3ccc(C(F)(F)F)cc3)nc2)C1=O [Ex. 1-254]
90 | 99 | 66 | Cc1cccc(Oc2ccc(CN3CCC(O)=C(C(=O)NCC(=O)O)C3=O)cn2)c1 [Ex. 1-255]
91 | 101 | 66 | O=C(O)CNC(=O)C1=C(O)CCN(Cc2ccc(Oc3cccc(F)c3)nc2)C1=O [Ex. 1-256]
89 | 95 | 75 | Cc1cccc(Oc2ccc(CN3CCC(O)=C(C(=O)NCC(=O)O)C3=O)cc2)c1 [Ex. 1-257]
90 | 94 | 63 | O=C(O)CNC(=O)C1=C(O)CCN(Cc2ccc(Oc3cccc(F)c3)cc2)C1=O [Ex. 1-258]
91 | 92 | 96 | O=C(O)CNC(=O)C1=C(O)CCN(Cc2ccc(Oc3ccc(F)cc3)cn2)C1=O [Ex. 1-259]
97 | 99 | – | O=C(O)CNC(=O)C1=C(O)CCN(Cc2ccc(Sc3ccc(Cl)cc3)nc2)C1=O [Ex. 1-261]
87 | 88 | – | O=C(O)CNC(=O)C1=C(O)CCN(Cc2ccc(OC3CCC3)cc2)C1=O [Ex. 1-262]
83 | 81 | – | Cc1ccccc1-n1ncc(CN2CCC(O)=C(C(=O)NCC(=O)O)C2=O)c1C [Ex. 1-263]
